Reference: patent US10376520B2, “Methods for the treatment of cardiovascular disorders” (Galapagos NV, priority 2015, dated 2019)

Tests used:
RA patients [1] = assay: Plasma total cholesterol level (Selectra autoanalyzer), Study 4; assay type: in vivo, human; conditions: for Total cholesterol level, 4 weeks CFB: 4 weeks change from baseline
Protocol: (§1) Randomized double-blind, placebo-controlled add on study in subjects with active RA who have an inadequate response to MTX monotherapy, in combination with methotrexate, administered for 4 weeks in the treatment of subjects with active rheumatoid arthritis who have an inadequate response to methotrexate alone.
(§2) Compound 1 (dosed as a [Compound 1:HCl:3H2O]) capsules administered orally in 30 mg, 75 mg, 150 mg, or 300 mg doses per day for 4 weeks.
Triglycerides, [HDL] cholesterol, and plasma cholesterol were measured on the Selectra autoanalyzer (Sopachem BV, 44-RI Straat 33, 4051 AP Ochten, The Netherlands). All assays were commercially available from DiaSys Diagnostic Systems GmbH, Alte Strasse 9, 65558 Holzheim, Germany. […]

RA patients [2] = assay: Plasma Serum Amyloid A (SAA) concentration (ELISA), Study 4; assay type: in vivo, human; conditions: for SAA level, 4 weeks CFB: 4 weeks change from baseline
Protocol: as §1, §2
Plasma SAA concentration was determined using a commercial available Novex ELISA kit from Life technologies (Bleiswijk, The Netherlands) according to manufacturer's instruction. Catalogue number KHA0011, lot number used: 1433688A.

## O=C(Nc1nc2cccc(-c3ccc(CN4CCS(=O)(=O)CC4)cc3)n2n1)C1CC1 [Compound 1, cyclopropanecarboxylic acid {5-[4-(1,1-dioxo-thiomorpholin-4-ylmethyl)-phenyl]-[1,2,4]triazolo[1,5-a]pyridin-2yl}-amide]
RA patients [1]; 30 mg q.d.
  Total cholesterol level, 4 weeks CFB: 25.9%
  Total cholesterol level, Baseline: 4.9 mM
  Total cholesterol level, week 4: 5.8 mM
RA patients [1]; 75 mg q.d.
  Total cholesterol level, 4 weeks CFB: 5.2%
  Total cholesterol level, Baseline: 4.9 mM
  Total cholesterol level, week 4: 5.1 mM
RA patients [1]; 150 mg q.d.
  Total cholesterol level, 4 weeks CFB: −1.2%
  Total cholesterol level, Baseline: 5 mM
  Total cholesterol level, week 4: 5 mM
RA patients [1]; 300 mg q.d.
  Total cholesterol level, 4 weeks CFB: 19.4%
  Total cholesterol level, Baseline: 4.7 mM
  Total cholesterol level, week 4: 5.7 mM
RA patients [2]; 30 mg q.d.
  SAA level, 4 weeks CFB: −15.4%
  SAA level, Baseline: 935.4 ng/mL
  SAA level, week 4: 436.2 ng/mL
RA patients [2]; 75 mg q.d.
  SAA level, 4 weeks CFB: −13.5%
  SAA level, Baseline: 883.7 ng/mL
  SAA level, week 4: 201.3 ng/mL
RA patients [2]; 150 mg q.d.
  SAA level, 4 weeks CFB: −56.7%
  SAA level, Baseline: 621.3 ng/mL
  SAA level, week 4: 388.5 ng/mL
RA patients [2]; 300 mg q.d.
  SAA level, 4 weeks CFB: −62.0%
  SAA level, Baseline: 555.6 ng/mL
  SAA level, week 4: 43.2 ng/mL
